Assay: Confocal laser scanning microscopy of skin penetration of dye
Assay type: in vitro ADME
Details: CLSM of rat skin, calcein dye (FIG. 2)
Excerpt: FIG. 2. CLSM image of rat skin: without calcein dye under (a) calcein filter (b) bright field; with free calcein solution under (c) calcein filter (d) bright field; with calcein-loaded SPC liposomes under (e) calcein filter (f) bright field.

O=C(O)CN(CC(=O)O)Cc1cc2c(cc1O)Oc1cc(O)c(CN(CC(=O)O)CC(=O)O)cc1C21OC(=O)c2ccccc21 [free dye, calcein]
Penetration of dye through skin: visible only at the surface of the skin and around the hair follicles

From patent publication US9375388B2, “Nanoparticle based cosmetic composition” (Indian Institute of Technology, priority 2011, dated 2016)
